The source made the active and inactive calls. The rule behind the calls is not given here.

The subject of series [1] is Trypanosoma brucei rhodesiense. Nature of the series: Antiparasitic activity against Trypanosoma brucei rhodesiense STIB900 infected in Swiss-Webster mouse assessed as cure rate at 50 mg/kg, bid administered via oral gavage from day 2 to 5 post infection measured after 60 days by microscopic method relative to control. Type of series: functional.
A further series deals with Cytochrome P450 3A4 (Homo sapiens, UniProt P08684). Briefly: Inhibition of human CYP3A4. The class given is ADME.
In series [2] the test system is Trypanosoma brucei brucei. Briefly: Antiparasitic activity against Trypanosoma brucei brucei BF427 assessed as growth inhibition at 16 times EC50 pretreated for 72 hrs followed by compound washout measured after 10 days by light microscopic method. The class given is functional.
For series [3], the system named is Liver. Nature of the series: Half life in human liver microsomes at 1.5 uM by LC-MS analysis. The class given is ADME, microsome.
Series [4] is described as follows: AUC (0 to 8 hrs) in mouse at 50 mg/kg, po by LC-MS analysis. The class given is ADME, organism-based. Details: dose 50 mg/kg, time < 8 hr, route oral. The settings on record: in vivo.
The nature of series [5]: Cytotoxicity against human CRL8155 cells assessed as growth inhibition after 48 hrs by Alamar blue assay. The settings on record: crl8155, 48 h. Type of series: cell-based. On the technique in general: Resazurin is reduced to fluorescent resorufin, in cell work by metabolically active cells.
Series [6] has as its system Trypanosoma brucei brucei. Briefly: Antiparasitic activity against Trypanosoma brucei brucei BF427 assessed as growth inhibition at 32 times EC50 pretreated for 96 hrs followed by compound washout measured after 10 days by light microscopic method. Type of series: functional.
For a further series, the system named is HepG2. Nature of the series: Cytotoxicity against human HepG2 cells assessed as growth inhibition after 48 hrs by Alamar blue assay. Type of series: cell-based. The following applies: hepg2, 48 h.
Series [7] has as its system Trypanosoma brucei brucei. Briefly: Antiparasitic activity against Trypanosoma brucei brucei BF427 assessed as growth inhibition at 32 times EC50 pretreated for 48 hrs followed by compound washout measured after 10 days by light microscopic method. The class given is functional.
The nature of series [8]: Ratio of drug level in brain to plasma in mouse at 5 mg/kg, ip after 1 hr by LC-MS analysis. The class given is ADME, organism-based.
Series [9] can be described thus: Cmax in mouse at 50 mg/kg, po by LC-MS analysis. Type of series: ADME, organism-based. Details: dose 50 mg/kg, route oral. The settings on record: in vivo.
In series [10] the test system is Trypanosoma brucei brucei. Nature of the series: Antiparasitic activity against Trypanosoma brucei brucei BF427 assessed as growth inhibition at 16 times EC50 pretreated for 24 hrs followed by compound washout measured after 10 days by light microscopic method. The class given is functional.
Series [11] relates to Trypanosoma brucei brucei. Briefly: Antiparasitic activity against Trypanosoma brucei brucei TREU667 infected in mouse assessed as decrease in parasitemia at 50 mg/kg, bid administered via oral gavage on day 21 to 34 post infection measured on day 41 to 42 by microscopic method. The class given is functional, organism-based.
Series [12] has as its system Trypanosoma brucei brucei. Nature of the series: Antiparasitic activity against Trypanosoma brucei brucei BF427 assessed as growth inhibition after 48 hrs by Alamar blue assay. Type of series: functional. The following applies: BF427, 48 h.
Series [13] deals with Liver. Nature of the series: Half life in mouse liver microsomes at 1.5 uM by LC-MS analysis. Type of series: ADME, microsome. In general terms: Microsomes from liver hold many membrane-bound enzymes, among them those of drug oxidation.
The test system of series [14] is Trypanosoma brucei brucei. Briefly: Antiparasitic activity against Trypanosoma brucei brucei TREU667 infected in mouse assessed as decrease in parasitemia at 50 mg/kg, bid administered via oral gavage on day 21 to 34 post infection measured on day 36 by microscopic method. Type of series: functional, organism-based.
For series [15], the system named is Trypanosoma brucei brucei. Nature of the series: Antiparasitic activity against Trypanosoma brucei brucei BF427 assessed as growth inhibition at 8 times EC50 pretreated for 72 hrs followed by compound washout measured after 10 days by light microscopic method. Type of series: functional.
Series [16] relates to Trypanosoma brucei brucei. Nature of the series: Antiparasitic activity against Trypanosoma brucei brucei TREU667 infected in mouse assessed as decrease in parasitemia at 50 mg/kg, bid administered via oral gavage on day 21 to 34 post infection measured on day 35 by microscopic method. The class given is functional, organism-based.
Series [17] relates to Trypanosoma brucei brucei. Nature of the series: Antiparasitic activity against Trypanosoma brucei brucei BF427 assessed as growth inhibition at 8 times EC50 pretreated for 48 hrs followed by compound washout measured after 10 days by light microscopic method. Type of series: functional.
Series [18] relates to Trypanosoma brucei brucei. Briefly: Antiparasitic activity against Trypanosoma brucei brucei BF427 assessed as growth inhibition at 4 times EC50 pretreated for 96 hrs followed by compound washout measured after 10 days by light microscopic method. Type of series: functional.
Series [19] deals with Trypanosoma brucei brucei. Briefly: Antiparasitic activity against Trypanosoma brucei brucei TREU667 infected in mouse assessed as decrease in parasitemia at 50 mg/kg, bid administered via oral gavage on day 21 to 34 post infection measured on day 34 by microscopic method. The class given is functional, organism-based.
For series [20], the system named is Trypanosoma brucei brucei. Briefly: Antiparasitic activity against Trypanosoma brucei brucei TREU667 infected in mouse assessed as decrease in parasitemia at 50 mg/kg, bid administered via oral gavage on day 21 to 34 post infection measured on day 40 by microscopic method. Type of series: functional, organism-based.
Series [21] concerns Trypanosoma brucei rhodesiense. Briefly: Antiparasitic activity against Trypanosoma brucei rhodesiense STIB900 infected in Swiss-Webster mouse assessed as parasitemia rebound time at 50 mg/kg, bid administered via oral gavage from day 2 to 5 post infection by microscopic method. Type of series: functional.
Series [22] has as its system Trypanosoma brucei rhodesiense. Briefly: Antiparasitic activity against Trypanosoma brucei rhodesiense STIB900 assessed as growth inhibition after 48 hrs by Alamar blue assay. The class given is functional. The following applies: STIB900, 48 h.
The test system of series [23] is Trypanosoma brucei brucei. Briefly: Antiparasitic activity against Trypanosoma brucei brucei BF427 assessed as growth inhibition at 128 times EC50 pretreated for 24 hrs followed by compound washout measured after 10 days by light microscopic method. Type of series: functional.
For series [24], the system named is Trypanosoma brucei brucei. Nature of the series: Antiparasitic activity against Trypanosoma brucei brucei BF427 assessed as growth inhibition at 128 times EC50 pretreated for 48 hrs followed by compound washout measured after 10 days by light microscopic method. The class given is functional.
In series [25] the test system is Trypanosoma brucei brucei. Briefly: Antiparasitic activity against Trypanosoma brucei brucei BF427 assessed as growth inhibition at 64 times EC50 pretreated for 96 hrs followed by compound washout measured after 10 days by light microscopic method. Type of series: functional.
For series [26], the system named is Trypanosoma brucei brucei. Briefly: Antiparasitic activity against Trypanosoma brucei brucei BF427 assessed as growth inhibition at 64 times EC50 pretreated for 72 hrs followed by compound washout measured after 10 days by light microscopic method. The class given is functional.

Sequence of Cytochrome P450 3A4 (P08684 whole entry): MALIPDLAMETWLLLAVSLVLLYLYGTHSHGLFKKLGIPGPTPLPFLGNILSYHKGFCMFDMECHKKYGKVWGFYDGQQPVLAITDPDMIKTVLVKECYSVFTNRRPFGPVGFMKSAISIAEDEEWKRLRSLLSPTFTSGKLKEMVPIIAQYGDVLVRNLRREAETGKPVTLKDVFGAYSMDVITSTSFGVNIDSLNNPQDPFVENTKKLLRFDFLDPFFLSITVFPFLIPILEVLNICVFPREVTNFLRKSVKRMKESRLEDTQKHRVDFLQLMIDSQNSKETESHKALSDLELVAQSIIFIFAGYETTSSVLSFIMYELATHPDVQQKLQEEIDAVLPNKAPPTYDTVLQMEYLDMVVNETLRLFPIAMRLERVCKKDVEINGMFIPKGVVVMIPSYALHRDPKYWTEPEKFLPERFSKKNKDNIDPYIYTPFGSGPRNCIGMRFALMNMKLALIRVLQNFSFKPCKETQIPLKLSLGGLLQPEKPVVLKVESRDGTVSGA

Consider `CC(C)c1ccc(COc2ccc(N(CCN)C(=O)c3ccc(Cl)cc3Cl)cc2)cc1.Cl`, for which the Activity in [1] is 67 - 80%. The same compound showed an IC50 against Cytochrome P450 3A4 of 0.015 µM. Also, the “growth inhibition (GI)” value in series [2], in [6], in series [7] and in series [10] was “Active” each time. Also, the t1/2 with Liver [3] was above 1 h. The compound further showed an AUC(0-t) at 8 h in series [4] of 21 µM·h. For the same compound, the cytotoxic concentration (CC50) in series [5] turned out to be 3.1 µM; in the series on HepG2 it was 3.19 µM. Also, the BPR in series [8] came out at 0.32. Moreover, the Cmax in [9] is 1490 nM.
With `CC(C)c1ccc(COc2ccc(N(CCN)C(=O)c3cccnc3Cl)cc2)cc1.Cl`, the result in series [11] was inactive. Besides, in series [12], the 50% effective concentration (EC50) was determined as 0.002 µM. For the same compound, the t1/2 in the series with Liver [13] and in the series with Liver [3] was above 1 h in each case. The result in [14], in series [16] and in series [19] was Active. For the same compound, in series [1], the Activity was 67 - 80%. The compound also had an AUC(0-t) at 8 h in series [4] of 12.3 µM·h. The “growth inhibition (GI)” value in series [15], in series [17], in series [18] and in series [10] was “Active” in each case. Besides, the values for the CC50 (in series [5]; in the series on HepG2) were 4.03 µM and 10.5 µM, respectively. The BPR in series [8] turned out to be 0.16. Moreover, the maximum concentration (Cmax) in series [9] was 1890 nM.
Turning to `CC(C)c1ccc(COc2ccc(N(CCN)C(=O)c3cccnc3C(F)(F)F)cc2)cc1.Cl`, the concentration for a half-maximal effect (EC50) was 0.001 µM in series [12] and 0.002 µM in series [22]. Further, the outcome in series [14], in [16] and in [19] was Active. Further, the Activity in series [1] is listed as 67 - 80%. The compound further yielded an IC50 against Cytochrome P450 3A4 of 0.144 µM. Further, in [20], the outcome was inactive. Also, the Time in series [21] was determined as 31 days. Further, in the series with Liver [3], the t1/2 was above 1 h. Also, the AUC(0-t) at 8 h in [4] was 5.58 µM·h. Besides, the 50% cytotoxic concentration (CC50) in [5] was 2.03 µM; with HepG2, 3.83 µM. For the same compound, the BPR in series [8] is 0.23. The compound further gave a Cmax in series [9] of 1000 nM.
Regarding `Cl.NCCN(C(=O)c1ccccc1C(F)(F)F)c1ccc(OCc2ccc(Cl)cc2)cc1`, in series [12], the concentration giving a half-maximal response (EC50) was 0.007 µM. Further, the “growth inhibition (GI)” value in series [23], in [24], in [25] and in series [26] was “Active” each time. The Activity in series [1] is given as 33%. This compound came in with a t1/2 with Liver [3] above 1 h. The compound further showed an AUC(0-t) at 8 h in [4] of 10.3 µM·h. In addition, the 50% cytotoxic concentration (CC50) in series [5] is 3.08 µM; in the series with HepG2, 5.72 µM. The BPR in series [8] worked out at 0.88. Moreover, the peak concentration (Cmax) in series [9] was 1670 nM.

By IC50 is commonly meant the midpoint of a concentration-inhibition curve. Read a high IC50 as weaker potency. The term AUC(0-t) denotes exposure summed from dosing to a finite time, without extrapolation to infinity. As a reminder, the CC50 is the concentration giving 50% cytotoxicity. One may read the Cmax as the highest concentration seen after dosing. As usually defined, the EC50 is the concentration that produces a half-maximal response.

Values taken from ChEMBL document CHEMBL4000252, “Discovery of N-(2-aminoethyl)-N-benzyloxyphenyl benzamides: New potent Trypanosoma brucei inhibitors” (Bioorg Med Chem, 2017).
